According to BigSolDB 2.1:

Cc1nc(CCl)nc2ccccc12
solubility (mole fraction) (in THF, 281.15 K): 0.229 | solubility (mole fraction) (in THF, 286.15 K): 0.264 | solubility (mole fraction) (in THF, 291.15 K): 0.297 | solubility (mole fraction) (in THF, 296.15 K): 0.339 | solubility (mole fraction) (in THF, 301.15 K): 0.374 | solubility (mole fraction) (in THF, 306.15 K): 0.411 | solubility (mole fraction) (in THF, 311.15 K): 0.452 | solubility (mole fraction) (in THF, 316.15 K): 0.492 | solubility (mole fraction) (in THF, 321.15 K): 0.528 | solubility (mole fraction) (in THF, 326.15 K): 0.563 | solubility (mole fraction) (in THF, 331.15 K): 0.604 | solubility (mole fraction) (in acetone, 281.15 K): 0.107 | solubility (mole fraction) (in acetone, 286.15 K): 0.142 | solubility (mole fraction) (in acetone, 291.15 K): 0.188 | solubility (mole fraction) (in acetone, 296.15 K): 0.244 | solubility (mole fraction) (in acetone, 301.15 K): 0.297 | solubility (mole fraction) (in acetone, 306.15 K): 0.373 | solubility (mole fraction) (in acetone, 311.15 K): 0.449 | solubility (mole fraction) (in acetone, 316.15 K): 0.531 | solubility (mole fraction) (in acetone, 321.15 K): 0.603 | solubility (mole fraction) (in acetone, 326.15 K): 0.676 | solubility (mole fraction) (in acetone, 331.15 K): 0.74 | solubility (mole fraction) (in acetonitrile, 281.15 K): 0.0488 | solubility (mole fraction) (in acetonitrile, 286.15 K): 0.0692 | solubility (mole fraction) (in acetonitrile, 291.15 K): 0.096 | solubility (mole fraction) (in acetonitrile, 296.15 K): 0.13 | solubility (mole fraction) (in acetonitrile, 301.15 K): 0.174 | solubility (mole fraction) (in acetonitrile, 306.15 K): 0.22 | solubility (mole fraction) (in acetonitrile, 311.15 K): 0.276 | solubility (mole fraction) (in acetonitrile, 316.15 K): 0.34 | solubility (mole fraction) (in acetonitrile, 321.15 K): 0.411 | solubility (mole fraction) (in acetonitrile, 326.15 K): 0.488 | solubility (mole fraction) (in acetonitrile, 331.15 K): 0.559 | solubility (mole fraction) (in cyclohexane, 281.15 K): 0.0193 | solubility (mole fraction) (in cyclohexane, 286.15 K): 0.0266 | solubility (mole fraction) (in cyclohexane, 291.15 K): 0.0361 | solubility (mole fraction) (in cyclohexane, 296.15 K): 0.0484 | solubility (mole fraction) (in cyclohexane, 301.15 K): 0.0639 | solubility (mole fraction) (in cyclohexane, 306.15 K): 0.0832 | solubility (mole fraction) (in cyclohexane, 311.15 K): 0.107 | solubility (mole fraction) (in cyclohexane, 316.15 K): 0.135 | solubility (mole fraction) (in cyclohexane, 321.15 K): 0.168 | solubility (mole fraction) (in cyclohexane, 326.15 K): 0.207 | solubility (mole fraction) (in cyclohexane, 331.15 K): 0.249 | solubility (mole fraction) (in ethanol, 281.15 K): 0.061 | solubility (mole fraction) (in ethanol, 286.15 K): 0.0771 | solubility (mole fraction) (in ethanol, 291.15 K): 0.0969 | solubility (mole fraction) (in ethanol, 296.15 K): 0.123 | solubility (mole fraction) (in ethanol, 301.15 K): 0.152 | solubility (mole fraction) (in ethanol, 306.15 K): 0.183 | solubility (mole fraction) (in ethanol, 311.15 K): 0.219 | solubility (mole fraction) (in ethanol, 316.15 K): 0.257 | solubility (mole fraction) (in ethanol, 321.15 K): 0.297 | solubility (mole fraction) (in ethanol, 326.15 K): 0.337 | solubility (mole fraction) (in ethanol, 331.15 K): 0.389 | solubility (mole fraction) (in ethyl acetate, 281.15 K): 0.105 | solubility (mole fraction) (in ethyl acetate, 286.15 K): 0.136 | solubility (mole fraction) (in ethyl acetate, 291.15 K): 0.173 | solubility (mole fraction) (in ethyl acetate, 296.15 K): 0.217 | solubility (mole fraction) (in ethyl acetate, 301.15 K): 0.266 | solubility (mole fraction) (in ethyl acetate, 306.15 K): 0.32 | solubility (mole fraction) (in ethyl acetate, 311.15 K): 0.378 | solubility (mole fraction) (in ethyl acetate, 316.15 K): 0.44 | solubility (mole fraction) (in ethyl acetate, 321.15 K): 0.503 | solubility (mole fraction) (in ethyl acetate, 326.15 K): 0.567 | solubility (mole fraction) (in ethyl acetate, 331.15 K): 0.63 | solubility (mole fraction) (in isopropanol, 281.15 K): 0.0429 | solubility (mole fraction) (in isopropanol, 286.15 K): 0.0569 | solubility (mole fraction) (in isopropanol, 291.15 K): 0.0748 | solubility (mole fraction) (in isopropanol, 296.15 K): 0.0964 | solubility (mole fraction) (in isopropanol, 301.15 K): 0.123 | solubility (mole fraction) (in isopropanol, 306.15 K): 0.156 | solubility (mole fraction) (in isopropanol, 311.15 K): 0.196 | solubility (mole fraction) (in isopropanol, 316.15 K): 0.245 | solubility (mole fraction) (in isopropanol, 321.15 K): 0.304 | solubility (mole fraction) (in isopropanol, 326.15 K): 0.394 | solubility (mole fraction) (in isopropanol, 331.15 K): 0.467 | solubility (mole fraction) (in n-butanol, 281.15 K): 0.05 | solubility (mole fraction) (in n-butanol, 286.15 K): 0.063 | solubility (mole fraction) (in n-butanol, 291.15 K): 0.081 | solubility (mole fraction) (in n-butanol, 296.15 K): 0.101 | solubility (mole fraction) (in n-butanol, 301.15 K): 0.125 | solubility (mole fraction) (in n-butanol, 306.15 K): 0.153 | solubility (mole fraction) (in n-butanol, 311.15 K): 0.186 | solubility (mole fraction) (in n-butanol, 316.15 K): 0.225 | solubility (mole fraction) (in n-butanol, 321.15 K): 0.27 | solubility (mole fraction) (in n-butanol, 326.15 K): 0.319 | solubility (mole fraction) (in n-butanol, 331.15 K): 0.361 | solubility (mole fraction) (in n-hexane, 281.15 K): 0.00825 | solubility (mole fraction) (in n-hexane, 286.15 K): 0.0115 | solubility (mole fraction) (in n-hexane, 291.15 K): 0.0146 | solubility (mole fraction) (in n-hexane, 296.15 K): 0.019 | solubility (mole fraction) (in n-hexane, 301.15 K): 0.0232 | solubility (mole fraction) (in n-hexane, 306.15 K): 0.0289 | solubility (mole fraction) (in n-hexane, 311.15 K): 0.0372 | solubility (mole fraction) (in n-hexane, 316.15 K): 0.0476 | solubility (mole fraction) (in n-hexane, 321.15 K): 0.0598 | solubility (mole fraction) (in n-hexane, 326.15 K): 0.0751 | solubility (mole fraction) (in n-hexane, 331.15 K): 0.093 | solubility (mole fraction) (in n-propanol, 281.15 K): 0.134 | solubility (mole fraction) (in n-propanol, 286.15 K): 0.145 | solubility (mole fraction) (in n-propanol, 291.15 K): 0.158 | solubility (mole fraction) (in n-propanol, 296.15 K): 0.172 | solubility (mole fraction) (in n-propanol, 301.15 K): 0.186 | solubility (mole fraction) (in n-propanol, 306.15 K): 0.201 | solubility (mole fraction) (in n-propanol, 311.15 K): 0.217 | solubility (mole fraction) (in n-propanol, 316.15 K): 0.234 | solubility (mole fraction) (in n-propanol, 321.15 K): 0.253 | solubility (mole fraction) (in n-propanol, 326.15 K): 0.273 | solubility (mole fraction) (in n-propanol, 331.15 K): 0.294
